{"source": "patent US11554116B2", "about": "“Agent for preventing and/or treating alzheimer's disease” (KYOTO UNIVERSITY, priority 2017, dated 2023)", "system": "Aβ production (Aβ1-40, 1-42 in culture supernatant)", "assay": "Aβ assay in cerebral cortex nerve cells induced from familial AD patient iPS cells (PSEN1 G384A)", "assay_type": "cell-based, human", "key": {"[1]": {"details": "added at 0.0016, 0.008, 0.04, 0.2, 1, 5, 25 μM to cerebral cortex nerve cells, 48 hr"}}, "note": "Structures can show the parent of a compound that is named as a salt. Where two headings read alike, the source gives them in different places."}
{"compound": "CC(C)C[C@H]1C(=O)N2CCC[C@H]2[C@]2(O)O[C@](NC(=O)[C@@H]3C=C4c5cccc6[nH]cc(c56)C[C@H]4N(C)C3)(C(C)C)C(=O)N12", "note": "[Alpha-Ergocryptine, α-ergocryptine]", "values": [{"measurement": "Aβ42/40 ratio", "result": "did not change"}, {"measurement": "Aβ production-lowering action", "result": "showed an Aβ production-lowering action similar to that of bromocriptine"}, {"measurement": "lowering of Aβ42 subtype compared with Aβ40", "result": "lowered Aβ40 and 42 to the same degree"}]}
{"compound": "C=CCN1C[C@H](C(=O)N(CCCN(C)C)C(=O)NCC)C[C@@H]2c3cccc4[nH]cc(c34)C[C@H]21", "note": "[Cabergoline]", "values": [{"measurement": "Aβ production-lowering action", "setting": "at 25 μM, cerebral cortex nerve cells, 48 hr", "result": "showed an Aβ production-lowering action"}]}
{"compound": "CC(C)[C@@]1(NC(=O)[C@@H]2C[C@@H]3c4cccc5[nH]cc(c45)C[C@H]3N(C)C2)O[C@@]2(O)[C@@H]3CCCN3C(=O)[C@H](Cc3ccccc3)N2C1=O", "note": "[Dihydroergocristine mesylate, dihydroergocristine]", "values": [{"measurement": "Aβ production-lowering action", "result": "showed a similar Aβ production-lowering action"}]}
{"compound": "CN1C[C@H](C(=O)N[C@]2(C)O[C@@]3(O)[C@@H]4CCCN4C(=O)[C@H](Cc4ccccc4)N3C2=O)C[C@@H]2c3cccc4[nH]cc(c34)C[C@H]21.CS(=O)(=O)O", "note": "[Dihydroergotamine Mesylate, dihydroergotamine]", "values": [{"measurement": "Aβ production-lowering action", "result": "showed a similar Aβ production-lowering action"}]}
{"compound": "CC(C)[C@@]1(NC(=O)[C@@H]2C=C3c4cccc5[nH]cc(c45)C[C@H]3N(C)C2)O[C@@]2(O)[C@@H]3CCCN3C(=O)[C@H](Cc3ccccc3)N2C1=O", "note": "[Ergocristine, ergocristine]", "values": [{"measurement": "Aβ production-lowering action", "result": "showed a similar Aβ production-lowering action"}]}
{"compound": "CN1C[C@H](C(=O)N[C@]2(C)O[C@@]3(O)[C@@H]4CCCN4C(=O)[C@H](Cc4ccccc4)N3C2=O)C=C2c3cccc4[nH]cc(c34)C[C@H]21.CN1C[C@H](C(=O)N[C@]2(C)O[C@@]3(O)[C@@H]4CCCN4C(=O)[C@H](Cc4ccccc4)N3C2=O)C=C2c3cccc4[nH]cc(c34)C[C@H]21.O=C(O)C(O)C(O)C(=O)O", "note": "[Ergotamine Tartrate, ergotamine]", "values": [{"measurement": "Aβ production-lowering action", "result": "showed a similar Aβ production-lowering action"}]}
{"compound": "Cc1cccc(C(=O)NCN2CCN(c3ccccc3C#N)CC2)c1", "note": "[PD168077]", "values": [{"measurement": "change of Aβ production", "setting": "[1]", "result": "none of the compounds changed Aβ production"}]}
{"compound": "CCCN1C[C@H](CSC)C[C@@H]2c3cccc4[nH]cc(c34)C[C@H]21", "note": "[Pergolide mesylate]", "values": [{"measurement": "Aβ production-lowering action", "setting": "at 5, 25 μM, cerebral cortex nerve cells, 48 hr", "result": "showed an Aβ production-lowering action"}]}
{"compound": "CCCN[C@H]1CCc2nc(N)sc2C1", "note": "[Pramipexole dihydrochloride]", "values": [{"measurement": "change of Aβ production", "setting": "[1]", "result": "none of the compounds changed Aβ production"}]}
{"compound": "CCCN(CCC)CCc1cccc2c1CC(=O)N2", "note": "[Ropinirole hydrochloride]", "values": [{"measurement": "change of Aβ production", "setting": "[1]", "result": "none of the compounds changed Aβ production"}]}
{"compound": "Oc1cc2c(cc1O)C(c1ccccc1)CNCC2", "note": "(stereo not drawn) [SKF38393]", "values": [{"measurement": "change of Aβ production", "setting": "[1]", "result": "none of the compounds changed Aβ production"}]}
{"compound": "C=CCN1CCc2nc(N)sc2CC1", "note": "[Talipexole]", "values": [{"measurement": "change of Aβ production", "setting": "[1]", "result": "none of the compounds changed Aβ production"}]}
{"compound": "CC(C)C[C@H]1C(=O)N2CCC[C@H]2[C@]2(O)O[C@](NC(=O)[C@@H]3C=C4c5cccc6[nH]c(Br)c(c56)C[C@H]4N(C)C3)(C(C)C)C(=O)N12", "note": "[bromocriptine]", "values": [{"measurement": "Aβ42/40 ratio", "result": "lower Aβ42/40 ratio"}, {"measurement": "Aβ production-lowering action", "result": "decreases the production of Aβ"}, {"measurement": "lowering of Aβ42 subtype compared with Aβ40", "result": "more efficiently reduced the production of Aβ42 subtype than Aβ40"}]}
{"compound": "Cl.NCCc1ccc(O)c(O)c1", "note": "[dopamine hydrochloride]", "values": [{"measurement": "change of Aβ production", "result": "none of the compounds changed Aβ production"}]}
